These molecules were tested against T1, recombinant human ULK1 protein (1-649) (Homo sapiens, UniProt O75385) (assay: ULK1 inhibition assay (ADP Glo)). Details: Table 1; 25 uM ATP, MBP substrate, one hour.
T1 construct: recombinant human ULK1 protein (1-649, SignalChem #U01-11G); purchased SignalChem U01-11G
T1 sequence (O75385 1-649): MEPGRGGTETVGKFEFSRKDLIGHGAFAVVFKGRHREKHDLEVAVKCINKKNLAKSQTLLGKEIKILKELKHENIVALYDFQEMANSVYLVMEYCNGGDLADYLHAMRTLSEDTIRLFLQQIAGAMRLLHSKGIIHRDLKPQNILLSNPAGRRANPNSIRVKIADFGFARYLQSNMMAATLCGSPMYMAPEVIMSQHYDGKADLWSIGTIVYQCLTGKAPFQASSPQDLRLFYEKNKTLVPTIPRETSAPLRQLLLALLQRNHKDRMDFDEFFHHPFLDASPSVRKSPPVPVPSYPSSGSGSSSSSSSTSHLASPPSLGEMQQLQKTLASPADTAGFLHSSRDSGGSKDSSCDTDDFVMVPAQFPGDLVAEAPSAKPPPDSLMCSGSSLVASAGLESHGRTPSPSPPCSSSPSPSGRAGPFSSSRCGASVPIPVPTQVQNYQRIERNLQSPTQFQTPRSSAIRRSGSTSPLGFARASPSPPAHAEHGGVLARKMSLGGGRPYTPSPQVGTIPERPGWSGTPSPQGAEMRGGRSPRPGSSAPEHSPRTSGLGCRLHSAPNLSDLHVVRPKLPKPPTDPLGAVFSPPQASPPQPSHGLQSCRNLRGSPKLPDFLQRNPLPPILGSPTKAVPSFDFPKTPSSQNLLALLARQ
Type: biochemical
Method: Illustrative compounds of Formula I and related analogs are shown in Table 1 (along with their respective IC50 values for ULK1 inhibition assays). For ADP Glo assay, IC50s are represented nM, with A representing IC50<1 nM, B representing 10 nM>IC50>1 nM, and C representing IC50>10 nM. NT indicates the compound was not tested. ULK1 inhibition assays were performed in a 5 uL reaction volume containing 2 ug/mL recombinant human ULK1 protein (1-649, SignalChem #U01-11G) and 80 ug/mL myelin basic protein (MBP, Sigma-Aldrich #M1891) in the presence of 25 uM ATP (Sigma-Aldrich A7699). ULK 1 inhibition was assessed after one hour. Compounds were tested in triplicate in a 16-dose IC50 mode with 3-fold serial dilution and a starting dose of 30 uM. Staurosporine, a non-selective protein kinase inhibitor, was used in the assay as a positive control.
According to another embodiment, the present disclosure provides methods of producing the above-defined compounds. The compounds may be synthesized using any suitable techniques. Advantageously, these compounds are conveniently synthesized from readily available starting materials. Synthetic chemistry transformations and methodologies useful in synthesizing the compounds described herein are known in the art and include, for example, those described in R. Larock, Comprehensive Organic Transformations (1989); T. W. Greene and P. G. M. Wuts, Protective Groups in Organic Synthesis, 2d. Ed. (1991); L. Fieser and M. Fieser, Fieser and Fieser's Reagents for Organic Synthesis (1994); and L. Paquette, ed., Encyclopedia of Reagents for Organic Synthesis (1995).). In general, synthesis and measurements of ULK1 inhibitory activity of the compounds described herein was performed using method analogous to those previously described in PCT International Application No. PCT/US2015/046777 which is hereby incorporated by reference in its entirety.

SMILES | IC50 [nM]
FC(F)(F)c1cnc(Nc2ccc3c(c2)CCN(Cc2cc[nH]c2)C3)nc1NC1CC1 [Compound A42] | < 1
FC(F)(F)c1cnc(Nc2ccc3c(c2)CCN(C2COC2)C3)nc1NC1CC1 [Compound A9] | 1 to 10
FC(F)(F)c1cnc(Nc2ccc3c(c2)CCN(CC2CNC2)C3)nc1NC1CC1 [Compound A41] | < 1
FC(F)(F)c1cnc(Nc2ccc3c(c2)CCN(CC2OCCO2)C3)nc1NC1CC1 [Compound A17] | < 1
CNC(=O)c1ccccc1Nc1nc(Nc2ccc3c(c2)CN(C)CC3)ncc1Br [Compound A167, 2-[5-Bromo-2-(2-methyl-1,2,3,4-tetrahydro-isoquinolin-7-ylamino)-pyrimidin-4-ylamino]-N-methyl-benzamide] | > 10
FC(F)(F)c1cnc(Nc2ccc3c(c2)CCN(Cc2ccoc2)C3)nc1NC1CC1 [Compound A92] | 1 to 10
CN1CCN(C(=O)N2CCc3ccc(Nc4ncc(C(F)(F)F)c(NC5CC5)n4)cc3C2)CC1 [Compound A99] | 1 to 10
CC(C)(C)OC(=O)C1Cc2ccc(Nc3ncc(C(F)(F)F)c(NC4CC4)n3)cc2C1 (stereo not drawn) [Compound A54] | 1 to 10
CNC(=O)c1ccccc1Nc1nc(Nc2ccc3c(c2)CCNC3)ncc1Br [Compound A126, 2-[5-Bromo-2-(1,2,3,4-tetrahydro-isoquinolin-6-ylamino)-pyrimidin-4-ylamino]-N-methyl-benzamide] | > 10
NOCC(=O)N1CCc2cc(Nc3ncc(C(F)(F)F)c(NC4CC4)n3)ccc2C1 [Compound A80] | 1 to 10
CNC(=O)c1ccccc1Nc1nc(Nc2ccc3c(c2)CCN(C(=O)[C@@H](N)CO)C3)ncc1Br (racemic) [Compound A139, 2-{2-[2-(2-Amino-3-hydroxy-propionyl)-1,2,3,4-tetrahydro-isoquinolin-6-ylamino]-5-bromo-pyrimidin-4-ylamino}-N-methyl-benzamide] | > 10
CNC(=O)c1ccccc1Oc1nc(Nc2ccc3c(c2)CCN(CCOC)C3)ncc1Br [Compound A125, 2-((5-Bromo-2-((2-(2-methoxyethyl)-1,2,3,4-tetrahydroisoquinolin-6-yl)amino)pyrimidin-4-yl)oxy)-N-methylbenzamide] | > 10
O=C(O)CCN1CCc2cc(Nc3ncc(C(F)(F)F)c(NC4CC4)n3)ccc2C1 [Compound A7] | < 1
CNC(=O)c1ccccc1Nc1nc(Nc2ccc3c(c2)CN(CC(C)O)CC3)ncc1Br (stereo not drawn) [Compound A157, 2-{5-Bromo-2-[2-(2-hydroxy-propyl)-1,2,3,4-tetrahydro-isoquinolin-7-ylamino]-pyrimidin-4-ylamino}-N-methyl-benzamide] | > 10
COc1ccc(CN2CCc3cc(Nc4ncc(C(F)(F)F)c(NC5CC5)n4)ccc3C2)cc1 [Compound A113] | < 1
CN1CCc2cc(Nc3nccc(NC4CC4)n3)ccc2C1 [Compound A72] | > 10
CNC(=O)c1ccccc1Nc1nc(Nc2ccc3c(c2)C[N+](C)(C)CC3)ncc1Br [Compound A168, 7-[5-Bromo-4-(2-methylcarbamoyl-phenylamino)-pyrimidin-2-ylamino]-2,2-dimethyl-1,2,3,4-tetrahydro-isoquinolinium; iodide] | > 10
FC(F)(F)c1cnc(Nc2ccc3c(c2)CCN(Cc2ccccc2)C3)nc1NC1CC1 [Compound A8] | < 1
CN1CCc2cc(Nc3ncc(N)c(NC4CC4)n3)ccc2C1 [Compound A61] | > 10
Cn1cnc(CN2CCc3ccc(Nc4ncc(C(F)(F)F)c(NC5CC5)n4)cc3C2)c1 [Compound A111] | 1 to 10
CN(C)CCN1CCc2cc(Nc3ncc(C(F)(F)F)c(NC4CC4)n3)ccc2C1 [Compound A44] | < 1
FC(F)(F)c1cnc(Nc2ccc3c(c2)CN(CC2CCNC2)CC3)nc1NC1CC1 (stereo not drawn) [Compound A107] | > 10
FC(F)(F)c1cnc(Nc2ccc3c(c2)CN(Cc2ccco2)CC3)nc1NC1CC1 [Compound A89] | 1 to 10
CCOC(=O)c1cnc(Nc2ccc3c(c2)CCN(C(=O)OC(C)(C)C)C3)nc1NC1CC1 [Compound A28] | > 10
O=C(OCCO)c1cnc(Nc2ccc3c(c2)CCNC3)nc1NC1CC1 [Compound A33] | > 10
Nc1cnc(Nc2ccc3c(c2)CCNC3)nc1NC1CC1 [Compound A59] | > 10
CN1CCN(C(=O)N2CCc3cc(Nc4ncc(C(F)(F)F)c(NC5CC5)n4)ccc3C2)CC1 [Compound A37] | < 1
FC(F)(F)c1cnc(Nc2ccc3c(c2)CCN(CCS)C3)nc1NC1CC1 [Compound A23] | < 1
FC(F)(F)c1cnc(Nc2ccc3c(c2)CCN(C2CNC2)C3)nc1NC1CC1 [Compound A52] | < 1
FC(F)(F)c1cnc(Nc2ccc3c(c2)CCN(Cc2ccco2)C3)nc1NC1CC1 [Compound A46] | < 1

Same assay, conditions: Table 2

SMILES | IC50 [nM]
COC(=O)c1ccccc1Oc1nc(Nc2cccc(OC(F)(F)F)c2)ncc1Br [Compound B40] | > 1000
COC(=O)c1ccccc1Oc1nc(Nc2ccc(CO)cc2)ncc1Br [Compound B38] | > 1000
COc1cc(Nc2ncc(Br)c(Oc3ccccc3C(=O)N3CCOCC3)n2)cc(OC)c1OC [Compound B9] | > 1000
COC(=O)c1ccccc1Oc1nc(Nc2ccc3c(c2)OCCO3)ncc1Br [Compound B14] | > 1000
COC(=O)CN(C)C(=O)c1ccccc1Oc1nc(Nc2cc(OC)c(OC)c(OC)c2)ncc1Br [Compound B5] | 100 to 1000
COc1cc(Nc2ncc(Br)c(Oc3ccccc3C(=O)O)n2)cc(OC)c1OC [Compound B4] | 100 to 1000
COC(=O)c1ccccc1Oc1nc(Nc2ccc(OC)nc2)ncc1Br [Compound B39] | > 1000
COC(=O)c1ccccc1Oc1nc(Nc2cccc(C(N)=O)c2)ncc1Br [Compound B21] | > 1000
COC(=O)c1ccccc1Oc1nc(Nc2ccc(C(F)(F)F)cc2)ncc1Br [Compound B42] | > 1000
COC(=O)c1ccccc1Oc1nc(Nc2ccc(O)c(O)c2)ncc1Br [Compound B46] | > 1000
COc1cc(Nc2ncc(Br)c(Oc3ccccc3C(=O)NCCN(C)C)n2)cc(OC)c1OC [Compound B7] | > 1000
COC(=O)c1ccccc1Oc1nc(Nc2ccc3c(c2)COC3)ncc1Br [Compound B33] | > 1000

Same assay, conditions: Table 3

SMILES | IC50 [nM]
COc1cc(Nc2ncc(Br)c(Nc3ccccc3CN3CCN(S(C)(=O)=O)CC3)n2)cc(OC)c1OC [Compound C22] | > 100
O=C(NCc1ccc(Nc2ncc(C(F)(F)F)c(NC3CC3)n2)cc1)OCc1ccccc1 [Compound D2] | < 5
CN1CCN(c2ccc(Nc3ncc(Br)c(Nc4ccccc4CO)n3)cc2)CC1 [Compound C9] | < 5
COc1cc(Nc2ncc(Br)c(Nc3ccccc3COC(=O)N3CCOCC3)n2)cc(OC)c1OC [Compound C21] | > 100
COc1cc(Nc2ncc(Br)c(Oc3ccccc3CO)n2)cc(OC)c1OC [Compound C1] | > 100
CN(C)Cc1ccc(Nc2ncc(C(F)(F)F)c(NC3CC3)n2)cc1 [Compound D4] | < 5
COCc1ccccc1Nc1nc(Nc2cc(OC)c(OC)c(OC)c2)ncc1Br [Compound C2] | < 5
CNC(=O)c1ccccc1Nc1nc(Nc2ccc(OC)cc2)ncc1Br [Compound E15, 2-((5-Bromo-2-((4-methoxyphenyl)amino)pyrimidin-4-yl)amino)-N-methylbenzamide] | > 100
NCCCNc1ncc(Br)c(Nc2ccccc2CO)n1 [Compound C15] | > 100
